Experimental data from publication PMC12643509, “High-throughput screens identify genotype-specific therapeutics for channelopathies” (JCI Insight, 2025).
Several values for one entry are separate records, joined by “and”; a condition that tells them apart may be missing. Equal values may be shown once.

Target: WT Kv11.1 (Homo sapiens, UniProt Q12809)
Assay: Whole-cell patch-clamp electrophysiology, drug in bath solution, WT
Format: cell-based
Set-up: expressed in transfected cells; Activation tail currents / Steady-state currents / Time constants of activation (τ): unit not given here
Settings: for Figure 5E value per cell vs Voltage (mV) / Figure 5F value per cell vs Voltage (mV) / Figure 4D value per cell vs Voltage (mV): individual replicates; for Inactivation time constant / Fast deactivation time constant / Slow deactivation time constant: Evacetrapib (15 µmol/L); for Peak tail current: Evacetrapib 15 µmol/L
From the text: Peak stea dy-sta te current was
Tail current was fit with a […]

Sequence of WT Kv11.1 (Q12809 whole entry): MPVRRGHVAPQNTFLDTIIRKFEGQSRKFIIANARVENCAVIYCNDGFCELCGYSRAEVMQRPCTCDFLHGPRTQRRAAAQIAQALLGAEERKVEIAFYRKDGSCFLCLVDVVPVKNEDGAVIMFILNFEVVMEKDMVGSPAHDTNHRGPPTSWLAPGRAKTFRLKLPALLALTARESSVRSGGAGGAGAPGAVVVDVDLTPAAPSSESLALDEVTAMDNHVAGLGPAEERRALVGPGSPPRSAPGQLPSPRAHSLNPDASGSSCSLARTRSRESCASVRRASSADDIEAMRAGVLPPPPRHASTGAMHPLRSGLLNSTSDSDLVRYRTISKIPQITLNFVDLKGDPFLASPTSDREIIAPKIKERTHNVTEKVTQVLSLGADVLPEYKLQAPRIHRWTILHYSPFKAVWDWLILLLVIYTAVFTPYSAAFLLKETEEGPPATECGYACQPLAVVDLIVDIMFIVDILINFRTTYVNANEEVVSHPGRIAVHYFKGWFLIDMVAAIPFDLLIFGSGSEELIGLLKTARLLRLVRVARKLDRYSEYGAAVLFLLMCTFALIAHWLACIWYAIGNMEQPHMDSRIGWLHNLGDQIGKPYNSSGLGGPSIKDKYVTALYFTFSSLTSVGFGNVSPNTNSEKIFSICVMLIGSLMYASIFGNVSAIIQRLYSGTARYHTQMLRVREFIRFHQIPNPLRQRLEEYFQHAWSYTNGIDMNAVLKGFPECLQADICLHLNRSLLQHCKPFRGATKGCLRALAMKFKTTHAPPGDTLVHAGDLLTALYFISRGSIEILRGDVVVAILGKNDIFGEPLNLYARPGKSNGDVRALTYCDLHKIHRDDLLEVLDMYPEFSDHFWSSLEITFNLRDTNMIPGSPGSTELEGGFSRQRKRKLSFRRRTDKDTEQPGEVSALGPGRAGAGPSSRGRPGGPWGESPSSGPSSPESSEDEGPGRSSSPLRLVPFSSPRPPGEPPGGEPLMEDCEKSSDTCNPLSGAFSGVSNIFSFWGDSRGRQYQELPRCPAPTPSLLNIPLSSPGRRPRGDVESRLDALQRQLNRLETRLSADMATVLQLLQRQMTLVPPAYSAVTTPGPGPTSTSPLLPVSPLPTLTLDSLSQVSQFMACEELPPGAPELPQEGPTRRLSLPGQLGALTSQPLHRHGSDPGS

## Cc1cc(C)c2c(c1)[C@@H](N(Cc1cc(C(F)(F)F)cc(C(F)(F)F)c1)c1nnn(C)n1)CCCN2C[C@H]1CC[C@H](C(=O)O)CC1 [Evacetrapib, evacetrapib]
Voltage -60 mV
  Figure 5E value per cell vs Voltage (mV): 1032.08 and 966.812 and 405
  Figure 5F value per cell vs Voltage (mV): 3804.89 and 9449.49 and 8793.8 and 3687.69 and 9196.29
Voltage -70 mV
  Figure 4D value per cell vs Voltage (mV): 13.1624 and 13.1509 and 12.2005 and 10.7217 and 10.4496 and 12.0627 and 12.9211 and 13.7327
  Figure 5E value per cell vs Voltage (mV): 981.118 and 839.618 and 778.428
  Figure 5F value per cell vs Voltage (mV): 5126.65 and 3642.53 and 2594.13
Voltage -90 mV
  Figure 4D value per cell vs Voltage (mV): 8.355 and 8.669 and 7.114 and 6.058 and 6.564 and 7.143 and 9.871 and 9.491
  Figure 5E value per cell vs Voltage (mV): 372.839 and 359.851 and 360.592 and 394.825 and 418.114 and 332.621 and 441 and 468.124
  Figure 5F value per cell vs Voltage (mV): 3977.04 and 1576.1 and 1475.11 and 1269.7 and 1679.13 and 1263.86 and 1827.67 and 3682.76
Voltage -100 mV
  Figure 4D value per cell vs Voltage (mV): 5.9805 and 6.106 and 5.3207 and 4.4265 and 4.931 and 4.972 and 6.757 and 6.876
  Figure 5E value per cell vs Voltage (mV): 366.452 and 329.996 and 269.807 and 269.273 and 487.907 and 220.859 and 396.726 and 472.93
  Figure 5F value per cell vs Voltage (mV): 2314.55 and 1511.55 and 907.537 and 927.568 and 1874.88 and 839.178 and 1131.37 and 2375.79
Voltage -110 mV
  Figure 4D value per cell vs Voltage (mV): 4.757 and 4.592 and 3.934 and 3.367 and 4.027 and 3.635 and 4.594 and 4.969
  Figure 5E value per cell vs Voltage (mV): 253.98 and 258.663 and 186.827 and 175.481 and 304.962 and 138.114 and 283.639 and 296.398
  Figure 5F value per cell vs Voltage (mV): 1302.55 and 1153.11 and 698.663 and 755.178 and 1277.44 and 611.635 and 865.285 and 1384.34
Voltage -120 mV
  Figure 4D value per cell vs Voltage (mV): 3.611 and 3.4981 and 2.97 and 2.532 and 3.293 and 2.583 and 3.34 and 3.894
  Figure 5E value per cell vs Voltage (mV): 244.589 and 219.981 and 132.908 and 108.36 and 189.369 and 89.3521 and 190.069 and 167.699
  Figure 5F value per cell vs Voltage (mV): 3324.93 and 1104 and 582.988 and 644.385 and 999.7 and 579.372 and 805.065 and 656.376
Voltage step 0, WT
  Inactivation time constant: 11.1 ± 0.6 ms
Voltage step 10, WT
  Inactivation time constant: 8.5 ± 0.3 ms
Voltage step 20, WT
  Inactivation time constant: 6.3 ± 0.2 ms
Voltage step 30, WT
  Inactivation time constant: 4.6 ± 0.2 ms
Voltage step 40, WT
  Inactivation time constant: 3.4 ± 0.2 ms
Voltage step 50, WT
  Inactivation time constant: 2.6 ± 0.2 ms
Voltage step 60, WT
  Inactivation time constant: 2.1 ± 0.1 ms
Voltage step 70, WT
  Inactivation time constant: 1.6 ± 0.1 ms
Voltage step (mV) 0, WT, mean±SD
  Peak tail current: 66.0±31.5 pA/pF
Voltage step (mV) 10, WT, mean±SD
  Peak tail current: 53.8±28.6 pA/pF
Voltage step (mV) 20, WT, mean±SD
  Peak tail current: 43.6±25.2 pA/pF
Voltage step (mV) 30, WT, mean±SD
  Peak tail current: 34.5±20.7 pA/pF
Voltage step (mV) 40, WT, mean±SD
  Peak tail current: 28.0±16.9 pA/pF
Voltage step (mV) -10, WT, mean±SD
  Peak tail current: 78.0±33.4 pA/pF
Voltage step (mV) -20, WT, mean±SD
  Peak tail current: 89.2±35.1 pA/pF
Voltage step (mV) -30, WT, mean±SD
  Peak tail current: 95.9±34.9 pA/pF
Voltage step (mV) -40, WT, mean±SD
  Peak tail current: 95.8±33.5 pA/pF
Voltage step (mV) -50, WT, mean±SD
  Peak tail current: 86.7±30.0 pA/pF
Voltage step (mV) -60, WT, mean±SD
  Peak tail current: 68.2±25.6 pA/pF
Voltage step (mV) -70, WT, mean±SD
  Peak tail current: 41.5±21.4 pA/pF
Voltage step (mV) -80, WT, mean±SD
  Peak tail current: 7.2±20.3 pA/pF
Voltage step (mV) -90, WT, mean±SD
  Peak tail current: -32.8±24.4 pA/pF
Voltage step (mV) -100, WT, mean±SD
  Peak tail current: -76.7±33.7 pA/pF
Voltage step (mV) -110, WT, mean±SD
  Peak tail current: -125.2±46.2 pA/pF
Voltage step (mV) -120, WT, mean±SD
  Peak tail current: -176.7±61.8 pA/pF
Voltage step -10, WT
  Inactivation time constant: 13.6 ± 0.7 ms
Voltage step -20, WT
  Inactivation time constant: 15.5 ± 0.9 ms
Voltage step -60, WT
  Fast deactivation time constant: 801.3 ± 344.8 ms
  Slow deactivation time constant: 6986.4 ± 2967.3 ms
Voltage step -70, WT
  Fast deactivation time constant: 866.4 ± 104.0 ms
  Slow deactivation time constant: 3787.8 ± 1272.5 ms
Voltage step -90, WT
  Fast deactivation time constant: 393.5 ± 46.0 ms
  Slow deactivation time constant: 2093.9 ± 1091.1 ms
Voltage step -100, WT
  Fast deactivation time constant: 351.7 ± 97.5 ms
  Slow deactivation time constant: 1485.3 ± 634.8 ms
Voltage step -110, WT
  Fast deactivation time constant: 237.3 ± 62.3 ms
  Slow deactivation time constant: 1006.0 ± 306.8 ms
Voltage step -120, WT
  Fast deactivation time constant: 167.8 ± 54.1 ms
  Slow deactivation time constant: 1087.1 ± 925.0 ms
WT
  rate of activation: decelerated the rate of activation
  rate of deactivation: slowed the rate of deactivation
WT channels
  rate of inactivation: did not affect the rate of inactivation
  recovery from inactivation: slight delay in the reopening from inactivation
WT, evacetrapib 15 μmol/L, individual cells
  Time constants of activation (τ): 764.055 and 877.888 and 1509 and 938.338 and 764.764 and 413.052
WT, evacetrapib 15 μmol/L, mean ± SD
  Activation τ: 877 ± 360 ms
WT, mean±SD, N=11
  Max (voltage dependence of activation): 78.2 ± 26.7 pA/pF
  Slope factor (voltage dependence of activation): 9.0 ± 1.6
  V1/2 (voltage dependence of activation): -4.0 ± 8.4 mV
whole-cell patch-clamp
  WT currents: increases WT currents
